Measurements taken from US20240343729A1 (priority 2021, published 2024).

Key:
[1] = target: T1, Human PDE10A2 (Homo sapiens (Human), UniProt Q9Y233); test: biochemical; assay type: biochemical; settings: human PDE10A2 0.25 nM, cGMP 3 μM
Description: Semi Log compound dilutions starting at a final concentration of 50 μM were dispensed into a black 384 well plate alongside, DMSO and an Inhibited control using the Echo Acoustic dispenser. […] Data was analysed using a 4-parameter fit.

[2] = target: T1, Human PDE10A2; test: cell-based; settings: Forskolin 10 μM; read-out: cAMP HTRF Assay in HEK 293 rhPDE10A2 cell line (pIC50) (converted)
Description: Semi log compound dilutions starting at a final concentration of 10 μM were dispensed into a white 384 well plate, alongside DMSO and an Inhibited control using the Tecan D300e digital dispenser. HEK 293 cells overexpressing recombinant human PDE10A2 were seeded on top of the compounds at 2500 cells/well in a volume 5 μL/well. The plate was incubated at room temperature for 60 minutes. To induce endogenous cAMP, 5 μL/well of Forskolin at a final assay concentration of 10 μM was added to the plate. The plate was incubated at room temperature for a further 45 minutes. cAMP HTRF detection reagents were added, and the plate was incubated for 60 minutes at room temperature. […] Data was analysed using a 4-parameter fit.

[3] = test system: inflamed colonic mucosa from ulcerative colitis patients; test: Ex-vivo culture of colon biopsies from ulcerative colitis patients, cytokine release (Protocol 1); assay type: cell-based, human; settings: UC colon biopsies, two patients; PF-02545920 0.1 μM and 1 μM, TAK-063 1 uM; 24 h; compared to DMSO vehicle
Description: The effect of selective PDE10A inhibition was tested on inflamed colonic mucosa from ulcerative colitis patients taken during routine endoscopy (Protocol 1 detailed below). These samples retain a disease phenotype in ex-vivo culture, secrete high basal levels of inflammatory cytokines, and represent a highly relevant and translational disease model. The effect of the PDE10A inhibitors on levels of the inflammatory cytokines IL-6 and IL-8 released from these tissue samples were measured. Both IL-6 and IL-8 are key regulators in ulcerative colitis pathology and their levels correlate with disease severity (Waldner M J et al. Master regulator of intestinal disease: IL-6 in chronic inflammation and cancer development. Semin Immunol. 26(1), 75-9 (2014); Bernardo D et al. IL-6 promotes immune responses in human ulcerative colitis and induces a skin-homing phenotype in the dendritic cells and T-cells they stimulate. Eur J Immunol. 42(5), 1337-53 (2012); Pearl D S, Cytokine mucosal expression in ulcerative colitis, the relationship between cytokine release and disease activity. J Crohns Colitis. 7(6), 481-9 (2013)).
These colon biopsies retain an inflammatory phenotype and secrete high levels of inflammatory cytokines in ex-vivo culture.
Biopsy tissue was obtained from inflamed colonic mucosa from ulcerative colitis or Crohn's disease patients during routine endoscopy. […] Biopsies were incubated in organ culture for 24 h with the addition of positive control compounds, or specific PDE10A inhibitors. Supernatants collected at the end of the experiment were snap-frozen and stored at −70° C. For the measurement of cytokines, the frozen culture supernatants were thawed and analysed for levels of the inflammatory cytokines using Luminex cytokine assay kits (R&D Systems) and an R&D Systems MAGPIX® analyser. Mean values±SDs were calculated for the levels of spontaneous cytokine production measured in biopsy culture supernatants from each treatment group.

[4] = test system: inflamed colonic mucosa from pharmacotherapy treatment-refractory ulcerative colitis patients; test: Ex-vivo culture of resected colon tissue from treatment-refractory ulcerative colitis patients, TNFα release (Protocol 2); assay type: cell-based, human; settings: 1 μM; two UC patients; SEB present; about 18 hours; compared to DMSO vehicle
[5] = test system: inflamed colonic mucosa from Crohn's Disease patients; test: Ex-vivo culture of colon biopsies from Crohn's disease patients, cytokine release (Protocol 1); assay type: cell-based, human; settings: 0.1 uM; 2 independent CD patient biopsies; compared to DMSO vehicle
Description: In addition, we tested the effect of selective PDE10A inhibition using 0.1 uM PF-2545920 on inflamed colonic mucosa from Crohn's Disease patients taken during routine endoscopy (Protocol 1).
Biopsy tissue was obtained from inflamed colonic mucosa from ulcerative colitis or Crohn's disease patients during routine endoscopy. Ex-vivo biopsy cultures for the analysis of inflammatory cytokine biomarkers were run as previously described (Vossenksmper A. et al. A CD3-specific antibody reduces cytokine production and alters phosphoprotein profiles in intestinal tissues from patients with inflammatory bowel disease. Gastroenterology, 147, 172-183 (2014)). Biopsies were incubated in organ culture for 24 h with the addition of positive control compounds, or specific PDE10A inhibitors. Supernatants collected at the end of the experiment were snap-frozen and stored at −70° C. For the measurement of cytokines, the frozen culture supernatants were thawed and analysed for levels of the inflammatory cytokines using Luminex cytokine assay kits (R&D Systems) and an R&D Systems MAGPIX® analyser. Mean values±SDs were calculated for the levels of spontaneous cytokine production measured in biopsy culture supernatants from each treatment group.

[6] = test system: isolated human neutrophil; test: In vitro assay of IL-8 neutrophil activation; assay type: cell-based
[7] = test system: other PDE family members; settings: literature value; read-out: IC50s for other PDE family members; cited from earlier work

T1 sequence (Q9Y233 267-1055): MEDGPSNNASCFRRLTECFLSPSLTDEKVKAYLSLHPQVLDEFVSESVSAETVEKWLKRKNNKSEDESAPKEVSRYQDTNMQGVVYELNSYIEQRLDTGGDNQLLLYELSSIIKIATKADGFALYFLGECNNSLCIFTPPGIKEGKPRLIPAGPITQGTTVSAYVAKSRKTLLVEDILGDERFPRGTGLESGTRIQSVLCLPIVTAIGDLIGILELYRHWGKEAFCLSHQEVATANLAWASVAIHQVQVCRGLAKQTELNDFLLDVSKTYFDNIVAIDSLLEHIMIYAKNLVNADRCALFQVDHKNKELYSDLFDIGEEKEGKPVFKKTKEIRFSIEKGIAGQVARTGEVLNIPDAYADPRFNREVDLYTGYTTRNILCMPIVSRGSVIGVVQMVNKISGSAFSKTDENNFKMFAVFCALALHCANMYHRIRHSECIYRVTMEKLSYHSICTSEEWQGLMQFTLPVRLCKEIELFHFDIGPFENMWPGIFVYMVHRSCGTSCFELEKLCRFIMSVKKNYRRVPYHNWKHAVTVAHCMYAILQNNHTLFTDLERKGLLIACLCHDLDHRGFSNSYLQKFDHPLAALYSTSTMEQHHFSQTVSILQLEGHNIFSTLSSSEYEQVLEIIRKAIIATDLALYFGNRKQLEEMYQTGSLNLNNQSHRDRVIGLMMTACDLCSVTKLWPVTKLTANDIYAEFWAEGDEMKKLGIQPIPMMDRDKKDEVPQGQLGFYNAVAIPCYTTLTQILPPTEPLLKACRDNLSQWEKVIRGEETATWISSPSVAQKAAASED

With `CC(C)n1ncc2c(N3C[C@H]4COC[C@H]4C3)nc(C#Cc3nc(-c4ccccc4)cn3C)nc21` [Example 18, (3aR,6aS)-5-(1-isoPropyl-6-((1-methyl-4-phenyl-1H-imidazol-2-yl)ethynyl)-1H-pyrazolo[3,4-d]pyrimidin-4-yl)hexahydro-1H-furo[3,4-c]pyrrole] the “PDE10A2 Phosphate Sensor Enzyme Assay (pIC50)” value [1] was 9.99 and the IC50 [2] was 0.617 nM.

In the case of `Cn1cc(-c2ccccc2)nc1C#Cc1nc(N2C[C@H]3COC[C@H]3C2)c2cnn(C3COC3)c2n1` [Example 19, (3aR,6aS)-5-(6-((1-Methyl-4-phenyl-1H-imidazol-2-yl)ethynyl)-1-(oxetan-3-yl)-1H-pyrazolo[3,4-d]pyrimidin-4-yl)hexahydro-1H-furo[3,4-c]pyrrole], the “PDE10A2 Phosphate Sensor Enzyme Assay (pIC50)” value [1] is reported as 9.41 and the IC50 [2] is reported as 11.2 nM.

With `Cn1cc(-c2ccccc2)nc1C#Cc1nc(N2C[C@H]3COC[C@H]3C2)c2ncn(C)c2n1` [Example 20, (3aR,6aS)-5-(9-Methyl-2-((1-methyl-4-phenyl-1H-imidazol-2-yl)ethynyl)-9H-purin-6-yl)hexahydro-1H-furo[3,4-c]pyrrole] the “PDE10A2 Phosphate Sensor Enzyme Assay (pIC50)” value [1] was 9.53 and the IC50 [2] was 8.71 nM.

For `C[C@@H]1COCCN1c1nc(C#Cc2nc(-c3ccccc3)cn2C)nc2c1ncn2C` [Example 21, (R)-3-Methyl-4-(9-methyl-2-((1-methyl-4-phenyl-1H-imidazol-2-yl)ethynyl)-9H-purin-6-yl)morpholine], the “PDE10A2 Phosphate Sensor Enzyme Assay (pIC50)” value [1] was 10.30 and the IC50 [2] was 0.417 nM.

For `Cn1cc(-c2ccccc2)nc1C#Cc1nc(N2C[C@H]3COC[C@H]3C2)c2cnn(C)c2n1` [Example 23, (3aR,6aS)-5-(1-Methyl-6-((1-methyl-4-phenyl-1H-imidazol-2-yl)ethynyl)-1H-pyrazolo[3,4-d]pyrimidin-4-yl)hexahydro-1H-furo[3,4-c]pyrrole], the “PDE10A2 Phosphate Sensor Enzyme Assay (pIC50)” value [1] was 10.40 and the IC50 [2] was 0.245 nM.

In the case of `Cn1cc(-c2ccccc2)nc1C#Cc1nc(N2CCS(=N)(=O)CC2)c2cnn(C)c2n1` [Example 24, 1-Imino-4-(1-methyl-6-((1-methyl-4-phenyl-1H-imidazol-2-yl)ethynyl)-1H-pyrazolo[3,4-d]pyrimidin-4-yl)-1l6-thiomorpholine 1-oxide], the “PDE10A2 Phosphate Sensor Enzyme Assay (pIC50)” value [1] is reported as 10.10 and the IC50 [2] is reported as 1.2 nM.

In the case of `C(#Cc1nc(-c2ccccc2)c[nH]1)c1nc(N2C[C@H]3COC[C@H]3C2)c2cnn(C3COC3)c2n1` [Example 27, (3aR,6aS)-5-(1-(Oxetan-3-yl)-6-((4-phenyl-1H-imidazol-2-yl)ethynyl)-1H-pyrazolo[3,4-d]pyrimidin-4-yl)hexahydro-1H-furo[3,4-c]pyrrole], the “PDE10A2 Phosphate Sensor Enzyme Assay (pIC50)” value [1] is reported as 9.49 and the IC50 [2] is reported as 32.4 nM.

In the case of `Cn1cnc2c(N3C[C@H]4COC[C@H]4C3)nc(C#Cc3nc(-c4ccccc4)c[nH]3)nc21` [Example 28, (3aR,6aS)-5-(9-Methyl-2-((4-phenyl-1H-imidazol-2-yl)ethynyl)-9H-purin-6-yl)hexahydro-1H-furo[3,4-c]pyrrole], the “PDE10A2 Phosphate Sensor Enzyme Assay (pIC50)” value [1] is reported as 9.34 and the IC50 [2] is reported as 33.9 nM.

In the case of `C[C@@H]1COCCN1c1nc(C#Cc2nc(-c3ccccc3)c[nH]2)nc2c1ncn2C` [Example 29, (R)-3-Methyl-4-(9-methyl-2-((4-phenyl-1H-imidazol-2-yl)ethynyl)-9H-purin-6-yl)morpholine], the “PDE10A2 Phosphate Sensor Enzyme Assay (pIC50)” value [1] is reported as 9.92 and the IC50 [2] is reported as 3.47 nM.

For `C[C@H]1COCCN1c1nc(C#Cc2nc(-c3ccccc3)c[nH]2)nc2c1ncn2C` [Example 30, (S)-3-Methyl-4-(9-methyl-2-((4-phenyl-1H-imidazol-2-yl)ethynyl)-9H-purin-6-yl)morpholine], the “PDE10A2 Phosphate Sensor Enzyme Assay (pIC50)” value [1] was 8.97 and the IC50 [2] was greater than 1000 nM.

In the case of `Cn1cnc2c(N3C[C@H]4COC[C@H]4C3)nc(C#Cc3nc(-c4cccnc4)c[nH]3)nc21` [Example 31, (3aR,6aS)-5-(9-Methyl-2-((4-(pyridin-3-yl)-1H-imidazol-2-yl)ethynyl)-9H-purin-6-yl)hexahydro-1H-furo[3,4-c]pyrrole], the “PDE10A2 Phosphate Sensor Enzyme Assay (pIC50)” value [1] is reported as 8.95 and the IC50 [2] is reported as 3.98 nM.

For `C[C@@H]1COCCN1c1nc(C#Cc2nc(-c3cccnc3)c[nH]2)nc2c1ncn2C` [Example 32, (R)-3-Methyl-4-(9-methyl-2-((4-(pyridin-3-yl)-1H-imidazol-2-yl)ethynyl)-9H-purin-6-yl)morpholine], the “PDE10A2 Phosphate Sensor Enzyme Assay (pIC50)” value [1] was 9.90 and the IC50 [2] was 2.34 nM.

With `C[C@H]1COCCN1c1nc(C#Cc2nc(-c3cccnc3)c[nH]2)nc2c1ncn2C` [Example 33, (S)-3-Methyl-4-(9-methyl-2-((4-(pyridin-3-yl)-1H-imidazol-2-yl)ethynyl)-9H-purin-6-yl)morpholine] the “PDE10A2 Phosphate Sensor Enzyme Assay (pIC50)” value [1] was 8.68 and the IC50 [2] was 17.4 nM.

With `Cn1cc(-c2ccncc2)c(-c2ccc(OCc3ccc4ccccc4n3)cc2)n1` [PF-02545920] the “secreted levels of IL-6” value [3] was “significantly reduced”, the “secreted levels of IL-8” value [3] was “significantly reduced” and the “secreted levels of TNFα” value [4] was “significantly reduced”. For the same molecule, the “secreted levels of IL-6” value [5] was “significantly reduced”, the “secreted levels of IL-8” value [5] was “significantly reduced” and the “IL-8 induced neutrophil activation” value [6] was “dose dependently inhibited”. For the same molecule, the IC50 [7] was greater than 1000 nM.

In the case of `COc1cn(-c2ccc(-n3cccn3)cc2F)nc(-c2ccnn2-c2ccccc2)c1=O` [TAK-063, 1-[2-fluoro-4-(1H-pyrazol-1-yl)phenyl]-5-methoxy-3-(1-phenyl-1H-pyrazol-5-yl)pyridazin-4(1H)-one], the “secreted levels of IL-6” value [3] is given as “significantly reduced”, the “secreted levels of IL-8” value [3] is given as “significantly reduced” and the IC50 [7] is given as greater than 5000 nM.
